This test deals with T1, MCP-1 receptor (Homo sapiens, UniProt P41597).
T1 construct: host or cells: THP-1 cell membranes
The test is described as follows: MCP-1 binding assay (125I-MCP-1, THP-1 cell membranes). Particulars: 0.2 nM 125I-labeled MCP-1, averages of several or two experiments, read-out: Inhibition Of MCP-1 Binding IC50. As to the method: Membranes used in the MCP-1 binding assay were prepared from THP-1 cells (human monocytic cell line source—American Type Culture Collection, Tumor Immunology Bank #202, Rockville, Md., accession no. ATCC TIB 202). Cells were harvested by centrifugation and washed twice in ice-cold PBS (phosphate-buffered saline) and the cell pellet was frozen at −80° C. in some cases. Cells were resuspended in ice-cold lysis buffer 5mM HEPES (2-(4N-,[2-hydroxyethyl] piperazin-1-yl)-N′-(2-ethanesulfonic acid), pH 7.5, 2 mM EDTA (ethylenediaminetetraacetic acid), 5 ug/ml each leupeptin, aprotinin, chymostatin (protease inhibitors), and 100 ug/ml PMSF (phenylmethane sulfonyl fluoride—also a protease inhibitor)) at a concentration of 5×10^7 cells/ml. […] Typical binding assays used 10-20 ug/well of total membrane protein as determined with a standard protein assay (e.g. BioRad, Richmond, Calif.).
For binding, 10-20 ug total membrane protein were included in the binding reaction along with 0.2 nM I^125-labeled MCP-1 (Amersham, Arlington Heights, Ill.) with or without unlabeled competitor MCP-1 (Peprotech, Rocky Hill, N.J.) (at 250-500 nM). […] Filters were dried and counted in a Beta-Plate scintillation counter using standard scintillation fluid. […]
IC50s were calculated using a non-linear 3-parameter logistic curve fit. […]

Counter-ions that a name gives are not always drawn.

Usually IC50 stands for the concentration that gives 50% inhibition.

T1 sequence (P41597 whole entry): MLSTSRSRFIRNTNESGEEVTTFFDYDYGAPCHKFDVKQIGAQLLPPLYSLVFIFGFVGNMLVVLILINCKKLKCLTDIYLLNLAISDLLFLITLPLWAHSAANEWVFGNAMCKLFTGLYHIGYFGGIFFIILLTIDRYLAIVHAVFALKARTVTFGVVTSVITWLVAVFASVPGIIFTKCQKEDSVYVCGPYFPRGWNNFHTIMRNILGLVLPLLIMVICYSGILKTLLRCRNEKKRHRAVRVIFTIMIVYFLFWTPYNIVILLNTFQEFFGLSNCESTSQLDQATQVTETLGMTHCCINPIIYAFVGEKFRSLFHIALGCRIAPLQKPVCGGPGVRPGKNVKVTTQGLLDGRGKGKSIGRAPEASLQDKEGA

For the molecule `O=C(/C=C/C=C/c1ccc(Cl)c(Cl)c1)NCCCN1CCCCC1` [Example 1, 5-(3,4-Dichloro-phenyl)-penta-2,4-dienoic Acid (3-piperidin-1-yl-propyl)-amide-HCl], the IC50 was 2200 nM.

Source of the values: US6458806B1, “Aryl alkenamides derivatives as MCP-1 antagonists” (Millennium Pharmaceuticals, Inc., priority 1996, dated 2002).
